This is an account of results in patent publication US9115093B2, “Substituted bicyclic dihydropyrimidinones and their use as inhibitors of neutrophil elastase activity” (Boehringer Ingelheim International GmbH, priority 2013, dated 2015).

The target of this assay is T1, neutrophil elastase (Homo sapiens, UniProt P08246).
T1 sequence (P08246 30-247 limits assumed): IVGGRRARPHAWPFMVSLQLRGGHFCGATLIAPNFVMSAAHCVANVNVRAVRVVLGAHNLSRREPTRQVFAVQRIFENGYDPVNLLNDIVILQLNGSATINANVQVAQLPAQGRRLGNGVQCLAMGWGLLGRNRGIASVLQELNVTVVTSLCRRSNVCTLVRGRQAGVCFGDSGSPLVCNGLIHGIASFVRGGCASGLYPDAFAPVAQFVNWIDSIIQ
The experiment in a line: Human Neutrophil Elastase Assay. Format: biochemical. On the set-up: purchased Calbiochem 324681. The following applies: substrate MeOSuc-Ala-Ala-Pro-Val-AMC, pH 7.5, room temperature. A digest of the protocol:
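Readout: AMC fluorescence (ex 380, em 460 nm) after 60 min room-temperature reaction with 250 nM MeOSuc-AAPV-AMC, following 15 min compound–enzyme preincubation. Buffer: Tris/NaCl pH 7.5, 0.01% BSA.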

The IC50 is the concentration that gives 50% inhibition. Read a high IC50 as lower potency.

For the compound `N#Cc1ccc(C2C3=C(CCCC3=O)N(c3cccc(C(F)(F)F)c3)C(=O)N2C(=O)NC2COC2)cc1` (stereo not drawn) [Example 39.5], the IC50 is under 1 nM.
Then `N#Cc1ccc(C2C3=C(CCCC3=O)N(c3cccc(C(F)(F)F)c3)C(=O)N2C(=O)NCCCO)cc1` (stereo not drawn) [Example 39.6], with under 1 nM; and `N#Cc1ccc(C2C3=C(CCCC3=O)N(c3cccc(C(F)(F)F)c3)C(=O)N2C(=O)N2CCOCC2)cc1` (stereo not drawn) [Example 39.7], with 63.3 nM.
Take `N#Cc1ccc(C2C3=C(CCCC3=O)N(c3cccc(C(F)(F)F)c3)C(=O)N2C(=O)NCC2CCOC2)cc1` (stereo not drawn) [Example 39.9]: the IC50 was under 1 nM.
Turning to `COC1CCN(C(=O)N2C(=O)N(c3cccc(C(F)(F)F)c3)C3=C(C(=O)CCC3)C2c2ccc(C#N)cc2)C1` (stereo not drawn) [Example 39.10], the IC50 is 54.8 nM.
Then `CN(C)CCN(C)C(=O)N1C(=O)N(c2cccc(C(F)(F)F)c2)C2=C(C(=O)CCC2)C1c1ccc(C#N)cc1` (stereo not drawn) [Example 39.11], with 23.2 nM; and `C[S+]([O-])CCNC(=O)N1C(=O)N(c2cccc(C(F)(F)F)c2)C2=C(C(=O)CCC2)C1c1ccc(C#N)cc1` (stereo not drawn) [Example 39.12], with under 1 nM.
Then `Cn1ccc(CNC(=O)N2C(=O)N(c3cccc(C(F)(F)F)c3)C3=C(C(=O)CCC3)C2c2ccc(C#N)cc2)n1` (stereo not drawn) [Example 39.13], with 1 nM; and `CN(C(=O)N1C(=O)N(c2cccc(C(F)(F)F)c2)C2=C(C(=O)CCC2)C1c1ccc(C#N)cc1)c1cnn(C)c1` (stereo not drawn) [Example 39.14], with 15 nM; and `CN1CCC(NC(=O)N2C(=O)N(c3cccc(C(F)(F)F)c3)C3=C(C(=O)CCC3)C2c2ccc(C#N)cc2)C1=O` (stereo not drawn) [Example 39.15], with under 1 nM.
Then `CN1CCN(C(=O)N2C(=O)N(c3cccc(C(F)(F)F)c3)C3=C(C(=O)CCC3)C2c2ccc(C#N)cc2)CC1=O` (stereo not drawn) [Example 39.16], with 46.9 nM.
Compound `N#Cc1ccc(C2C3=C(CCCC3=O)N(c3cccc(C(F)(F)F)c3)C(=O)N2C(=O)NCC2CCC(=O)N2)cc1` (stereo not drawn) [Example 39.17] yielded an IC50 of under 1 nM.
The same measure for `COC1CCN(C(=O)N2C(=O)N(c3cccc(C(F)(F)F)c3)C3=C(C(=O)CCC3)C2c2ccc(C#N)cc2)CC1` (stereo not drawn) [Example 39.18]: 79.1 nM; for `CS(=O)(=O)c1ccc(CNC(=O)N2C(=O)N(c3cccc(C(F)(F)F)c3)C3=C(C(=O)CCC3)C2c2ccc(C#N)cc2)nc1` (stereo not drawn) [Example 39.20]: under 1 nM.
The same measure for `COC(=O)N1C(=O)N(c2cccc(C(F)(F)F)c2)C2=C(C(=O)CCC2)C1c1ccc(C#N)cc1` (stereo not drawn) [Example 40, Methyl 4-(4-Cyanophenyl)-2,5-dioxo-1-(3-(trifluoromethyl)phenyl)-1,2,5,6,7,8-hexahydroquinazoline-3(4H)-carboxylate]: 9 nM.
As to `COCCOC(=O)N1C(=O)N(c2cccc(C(F)(F)F)c2)C2=C(C(=O)CCC2)C1c1ccc(C#N)cc1` (stereo not drawn) [Example 41, 2-Methoxyethyl 4-(4-Cyanophenyl)-2,5-dioxo-1-(3-(trifluoromethyl)phenyl)-1,2,5,6,7,8-hexahydroquinazoline-3(4H)-carboxylate], the IC50 was determined as 9.1 nM.
In turn, `CC(C)(C)COC(=O)N1C(=O)N(c2cccc(C(F)(F)F)c2)C2=C(C(=O)CCC2)C1c1ccc(C#N)cc1` (stereo not drawn) [Example 42, Neopentyl 4-(4-Cyanophenyl)-2,5-dioxo-1-(3-(trifluoromethyl)phenyl)-1,2,5,6,7,8-hexahydroquinazoline-3(4H)-carboxylate] showed an IC50 of 88.7 nM.
The same measure for `CS(=O)(=O)N1C(=O)N(c2cccc(C(F)(F)F)c2)C2=C(C(=O)CCC2)C1c1ccc(C#N)cc1` (stereo not drawn) [Example 43, 4-(3-(Methylsulfonyl)-2,5-dioxo-1-(3-(trifluoromethyl)phenyl)-1,2,3,4,5,6,7,8-octahydroquinazolin-4-yl)benzonitrile]: 4 nM.
